{"source": "patent US9415040B2", "about": "(priority 2008, dated 2016)", "key": {"[1]": {"test_system": "LuxN E233A", "details": "even at 500 μM AI-1, EC50 could not be assigned"}, "[2]": {"test_system": "LuxN P226T", "details": "even at 500 μM AI-1, EC50 could not be assigned"}, "[3]": {"test_system": "LuxN S205P", "details": "even at 500 μM AI-1, EC50 could not be assigned"}, "[4]": {"test_system": "LuxN F163A/R245L/S184N/G271D", "details": "quadruple mutant LuxN F163A/R245L/S184N/G271D; EC50 could not be determined"}, "[5]": {"test_system": "LuxN F202A", "details": "even at 500 μM AI-1, EC50 could not be assigned"}, "[6]": {"test_system": "Chromobacterium violaceum"}}}
{"compound": "CC(O)CC(=O)NC1CCOC1=O", "note": "(stereo not drawn) [AI-1, 3-hydroxybutanoyl homoserine lactone]", "values": [{"measurement": "Light production phenotype with AI-1", "setting": "[1]", "value": "dark phenotype"}, {"measurement": "Light production phenotype with AI-1", "setting": "[2]", "value": "dark phenotype"}, {"measurement": "Light production phenotype with AI-1", "setting": "[3]", "value": "dark phenotype"}, {"measurement": "Light production phenotype with AI-1", "setting": "[4]", "value": "constitutively bright at all AI-1 concentrations"}, {"measurement": "Light production phenotype with AI-1", "setting": "[5]", "value": "dark phenotype"}]}
{"compound": "N[C@H]1CCOC1=O", "note": "[HSL]", "values": [{"measurement": "Median survival of C. elegans", "setting": "[6]", "value": 4, "unit": "days"}]}
